Test results published in patent US6660757B2, “Use of riluzole in the treating acoustic traumas” (Aventis Pharmaceuticals Inc., priority 1998, dated 2003).

What was measured:
[1] = test system: compound action potential (CAP) of the auditory nerve; test: acute perifusion of the cochleae: effect of increasing doses on cochlear potentials (CAP); format: in vivo, guinea pigs
Description: The effect of riluzole in increasing doses was studied according to the technique of acute perifusion of the cochleae:
10 tricolor guinea pigs weighing 200 to 400 g are anesthetized by intraperitoneal injection of urethane (1.4 g/kg) and then trachetomized and artificially ventilated. The external auditory canals are incised for the putting in place of ear bars in a restraining apparatus. During the entire duration of the experiment, the electrocardiogram is monitored and the central temperature regulated by means of a heating cover at 38.5±1° C. The experiments are carried out in a soundproofed, anechoic and faradized chamber. Access to the cochlea is obtained via a ventral approach. After opening of the tympanic bulla, 3 holes 0.2 mm in diameter are manually cut in the basal turn of the cochlea: the first in the tympanic ramp to receive an infusion pipette, the second in the vestibular ramp to allow the outflow of the infused solutions out of the cochlea and the third also in the vestibular ramp to receive a recording electrode.
The cochlear potentials recorded in the vestibular ramp are stored and then numerically filtered to dissociate the compound action potential (CAP), a control for the activity of the auditory nerve and the receptor potentials obtained from the ciliated cells, namely the microphonic potential (MP) and the summation potential (SP). A low-pass filter of 2.5 kHz is used to extract the CAP whose amplitude is measured between N1 (1st negative wave) and P1 (1st positive wave) as well as the SP measured between 0 and 5 ms. A band-pass filter around 8 kHz (acoustic stimulation frequency) is used to extract the MP (6-10 kHz, filter slope: 48 db/octave).
After introducing the pipette (about 0.1 mm in diameter at the tip) into the tympanic ramp with the aid of a micromanipulator, leaktightness being provided by means of a glue ball placed near the tip, artificial perilymph is infused at the rate of 2.5 μl/min. A second infusion of artificial perilymph containing 0.1% dimethyl sulfoxide is carried out. […] These cochlear potentials are recorded immediately after each infusion. The duration of the infusions is 10 minutes.
The IC50 is observed for a dose of 300 μM (FIG. 2). In all the animals, a complete disappearance of the CAP is obtained for a dose of 500 μM.

[2] = test system: acoustic trauma; test: protective effect on acoustic trauma (sound overstimulation 6 kHz, 130 dB SPL, 15 minutes); format: in vivo, guinea pigs; details: 500 μM in perilymph
Protocol: The protective effect on acoustic trauma was tested on 10 animals for which a preliminary infusion of artificial perilymph is carried out for 10 minutes. After evaluation of the audiometric thresholds, a second 35 minute infusion either of artificial perilymph alone (5 animals: control group) or of perilymph containing 500 μM riluzole (5 animals) is carried out. Ten minutes after the start of the second infusion, a sound overstimulation (6 kHz, 130 dB SPL) is applied for 15 minutes. Finally, a third infusion of artificial perilymph allows rinsing of the cochlea. The audiometric thresholds are then recorded. The auditory loss for each frequency induced by sound exposure is defined as the difference between the audiometric thresholds recorded before and after the sound over-exposure.

[3] = cumulative increasing doses 50 to 500 μM, intracochlear infusion

For `Nc1nc2ccc(OC(F)(F)F)cc2s1` [riluzole, 2-amino-6-trifluoromethoxy-benzothiazole], the IC50 ([1]; Cavia porcellus, 10 min, intracochlear infusion of cumulative increasing doses 50 to 500 μM in artificial perilymph with 0.1% dimethyl sulfoxide, 10 minutes each, read-out: IC50 for reduction of the amplitude of the compound action potential (CAP)) was 300 µM, the “effect on CAP of the auditory nerve” value [1, 3] was “reduction in the compound action potential (CAP) of the auditory nerve dependant on the dose” and the “effect on latency N1 of the CAP” value [1, 3] was “increase in the latency N1”. For the same molecule, the “dose for complete disappearance of the CAP” value ([1]; intracochlear infusion, in all the animals) was 500 µM, the “auditory losses after sound overstimulation versus control group” value ([2]; 35 minute infusion, frequencies of between 8 and 16 kHz) was “control group exhibits, for frequencies of between 8 and 16 kHz, much higher auditory losses” and the “histological study of the cochleae by electron microscopy: innervation” value ([2]; after sound overstimulation) was “virtually normal innervation”.
